Reference: patent US20240376151A1, “STAPLED PEPTIDES AND METHODS THEREOF” (FOG PHARMACEUTICALS, INC., priority 2022, published 2024)
Where two headings read alike, the source gives them in different places. Blank lines part the entries; values can stand above or below the compound they belong to.

Key:
VHL-ELOBC [1] = target: T1, VHL-ELOBC (Homo sapiens, UniProt P40337); test: Naive Library Presenter Screening (phage, NGS), VHL-ELOBC; type: binding; settings: VHL target concentration 1000 nM
T1 construct: VHL (Uniprot ID: P40337, residues 54-213) with an N-terminal 6×His-TEV tag; 6×His-TEV (N); made in house; host or cells: E. coli BL21 (DE3)

VHL-ELOBC [2] = target: T1, VHL-ELOBC; test: Competition FP with VHL-binding fluorescent probe HXC78; settings: n=3
beta-catenin [3] = target: T2, beta-catenin (Homo sapiens, UniProt P35222); test: SPR binding of Helicons to immobilized beta-catenin
T2 construct: made in house; host or cells: E. coli BL21 (DE3) pLysS
T2 sequence (P35222 134-665): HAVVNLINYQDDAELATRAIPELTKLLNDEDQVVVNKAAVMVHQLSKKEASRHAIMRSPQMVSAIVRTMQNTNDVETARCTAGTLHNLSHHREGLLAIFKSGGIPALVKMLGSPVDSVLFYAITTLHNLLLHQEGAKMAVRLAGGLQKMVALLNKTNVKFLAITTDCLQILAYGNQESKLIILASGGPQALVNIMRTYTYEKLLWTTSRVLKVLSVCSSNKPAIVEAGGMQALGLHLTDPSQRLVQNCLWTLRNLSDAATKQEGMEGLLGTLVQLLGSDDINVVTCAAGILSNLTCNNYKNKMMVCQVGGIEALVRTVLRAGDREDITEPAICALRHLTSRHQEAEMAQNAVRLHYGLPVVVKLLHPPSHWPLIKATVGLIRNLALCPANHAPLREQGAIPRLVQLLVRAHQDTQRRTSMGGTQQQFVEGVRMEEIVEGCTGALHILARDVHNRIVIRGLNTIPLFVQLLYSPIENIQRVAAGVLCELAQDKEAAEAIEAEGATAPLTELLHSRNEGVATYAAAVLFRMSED

beta-catenin [4] = target: T3, beta-catenin (Homo sapiens, UniProt P35222); test: Competition FP, beta-catenin vs beta-catenin-binding domain of TCF4; settings: read-out: IC50 (μM, TCF)
T3 construct: 10 nM full-length β-catenin (Uniprot ID P35222); 6×His-thrombin-T7-TEV (N); made in house; host or cells: E. coli BL21 (DE3) pLysS

PD-L1 [5] = target: T4, PD-L1 (Homo sapiens, UniProt Q9NZQ7); settings: SPR
PD-L1:PD-1 binding = PD-L1:PD-1 binding (Homo sapiens, UniProt Q9NZQ7); settings: competition ELISA, n=2
PD-L1 [6] = target: T4, PD-L1; settings: TR-FRET
PD-L1 [7] = target: T4, PD-L1; settings: analytical SEC and TR-FRET experiments
CDK2 = CDK2 (Homo sapiens, UniProt P24941); test: CDK2 kinase activity, luminescence-based assay that detects ADP production; type: biochemical
Description: Among other things, two distinct clusters of Helicons that bound both CDK2 and CDK2 in complex with its partner CyclinE1, but not to CDK1 or CDK1 in complex with its partner CyclinA2 (C51 and C52). […] In some embodiments, one or more (e.g., 1, 2 or 3) or all residues to the N-terminus side of X^4 are absent. In some embodiments, one or more (e.g., 1, 2 or 3) or all residues to the C-terminus side of X^11 are absent.

beta-catenin [8] = target: T3, beta-catenin; test: Competition FP, beta-catenin vs Axin-derived Helicon probe; type: binding
MDM4 = target: T5, MDM4 (Homo sapiens, UniProt O15151, C17S); test: Direct FP ternary complex formation, fluorescent MDM4 and beta-catenin; type: biochemical; settings: fluorescent p53-binding domain of MDM4
T5 construct: 6×His-yBBr-3C (N, cleaved yes); made in house; host or cells: E. coli BL21 (DE3)
T5 sequence (O15151 14-111 C17S): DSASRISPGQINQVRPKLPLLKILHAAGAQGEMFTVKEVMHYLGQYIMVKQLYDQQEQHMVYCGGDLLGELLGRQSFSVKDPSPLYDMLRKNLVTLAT

β-catenin:MDM4 complex = target: T6, β-catenin:MDM4 complex (Homo sapiens, UniProt O15151+P35222, C17S); test: FP analysis of the β-catenin:MDM4 complex; type: biochemical; settings: direct FP assay
T6 construct: 6×His-yBBr-TEV (N); 6×His-yBBr-3C (N, cleaved yes); made in house; host or cells: E. coli BL21 (DE3) pLysS (beta-catenin); E. coli BL21 (DE3) (MDM4)
T6 sequence (P35222 134-665): T2 sequence (P35222 134-665)
T6 sequence (O15151 14-111 C17S): T5 sequence (O15151 14-111 C17S)

MDM2 and β-catenin = target: T7, MDM2 and β-catenin (Homo sapiens, UniProt P35222+Q00987); test: Direct FP ternary complex formation, fluorescent MDM2 and beta-catenin; type: biochemical; settings: fluorescent p53-binding domain of MDM2
T7 construct: 6×His-TEV (N, cleaved yes); 6×His-yBBr-TEV (N); made in house; host or cells: E. coli BL21 (DE3) (MDM2); E. coli BL21 (DE3) pLysS (β-catenin)

β-catenin:MDM2 complex = target: T8, β-catenin:MDM2 complex (Homo sapiens, UniProt P35222+Q00987); test: FP analysis of the β-catenin:MDM2 complex; type: biochemical; settings: read-out: EC50 of cooperative interaction between MDM2 and the Armadillo domain of β-catenin
T8 construct: 6×His-yBBr-TEV (N); 6×His-TEV (N, cleaved yes); made in house; host or cells: E. coli BL21 (DE3) pLysS (beta-catenin); E. coli BL21 (DE3) (MDM2)

interaction data at Target Concentration 1000 (VHL-ELOBC [1]): 0
Compound: DPAWWYCLDAAYDCDHT

Compound: Cc1ncsc1-c1ccc(CNC(=O)[C@@H]2C[C@@H](O)CN2C(=O)[C@@H](NC(=O)C2(C#N)CC2)C(C)(C)C)cc1 [VH298, (2S,4R)-1-((S)-2-(1-Cyanocyclopropanecarboxamido)-3,3-dimethylbutanoyl)-4-hydroxy-N-(4-(4-methylthiazol-5-yl)benzyl)pyrrolidine-2-carboxamide]
competition with HXC78 for binding VHL-ELOBC (VHL-ELOBC [2]): potently competes

Kd (beta-catenin [3]; SPR, beta-catenin, read-out: KD (μM, SPR)): > 10 µM
IC50 (beta-catenin [4]): > 10 µM
Compound: CC[C@H](C)[C@H](NC(=O)[C@H](CS)NC(=O)[C@H](CC(=O)O)NC(=O)[C@H](CC(=O)O)NC(=O)[C@H](CCC(N)=O)NC(=O)[C@H](C)NC(=O)[C@@H]1CCCN1C(=O)[C@H](CC(=O)O)NC(C)=O)C(=O)N[C@@H](CC(C)C)C(=O)N[C@@H](C)C(=O)N[C@@H](C)C(=O)N[C@@H](Cc1c[nH]cn1)C(=O)N[C@H](C(=O)N[C@@H](CS)C(=O)N[C@@H](C)C(=O)N[C@@H](CC(C)C)C(=O)N[C@@H](Cc1c[nH]c2ccccc12)C(N)=O)C(C)C [FP49433]

competition with PD-1 for binding to PD-L1 (PD-L1 [5]): compete more potently
inhibition of PD-L1:PD-1 binding (PD-L1:PD-1 binding): inhibits PD-L1:PD-1 binding
induction of PD-L1 dimerization in solution (PD-L1 [6]): induce PD-L1 dimerization
PD-L1 dimerization (PD-L1 [7]): Evidence of PD-L1 dimerization
Compound: Cc1cc(CN[C@H](CO)C(=O)O)c(OCc2cccc(C#N)c2)cc1OCc1cccc(-c2ccc3c(c2)OCCO3)c1C [BMS-1001]

Compound: Ac-WWVCAIAAIECSD-NH2 [FP33215]
inhibition of the kinase activity of CDK2 (CDK2): neither FP19711 nor FP33215 appeared to inhibit

Compound: CC[C@H](C)[C@@H]1NC(=O)[C@H](C)NC(=O)[C@H](C)NC(=O)[C@H](Cc2c[nH]c3ccccc23)NC(=O)[C@H](CCC(=O)O)NC(=O)[C@@H](NC(=O)[C@H](CC(C)C)NC(=O)[C@H](CCC(=O)O)NC(=O)[C@H](CO)NC(=O)[C@H](C)NC(=O)[C@@H]2CCCN2C(=O)[C@H](CC(=O)O)NC(C)=O)CSCC(=O)Nc2ccc(cc2)NC(=O)CSC[C@@H](C(=O)N[C@@H](CC(=O)O)C(=O)N[C@@H](CC(C)C)C(=O)N[C@H](C(N)=O)C(C)C)NC(=O)[C@H](Cc2c[nH]cn2)NC1=O [FP01822]
Kd (beta-catenin [3]): 3 µM
IC50 (beta-catenin [8]): 3.7 µM

Compound: CC(=O)N1CCC[C@H]1C(=O)N[C@@H](CC(N)=O)C(=O)N[C@@H](CC(C)C)C(=O)N[C@H](C(=O)NCC(=O)N[C@@H](C)C(=O)N[C@@H](CC(=O)O)C(=O)N[C@H]1CSCC(=O)Nc2ccc(cc2)NC(=O)CSC[C@@H](C(=O)N[C@@H](CC(C)C)C(=O)N[C@@H](CCC(N)=O)C(=O)N[C@@H](Cc2ccccc2)C(=O)N[C@@H](CC(C)C)C(=O)N[C@@H](Cc2c[nH]c3ccccc23)C(=O)N[C@@H](CC(=O)O)C(N)=O)NC(=O)[C@H](CCC(N)=O)NC(=O)[C@H](Cc2c[nH]c3ccccc23)NC(=O)[C@H](C)NC(=O)[C@H](C)NC(=O)[C@@H]2CCCN2C(=O)[C@H](Cc2ccccc2)NC1=O)[C@@H](C)O [Helicon H334]
ternary complex formation with MDM4 (MDM4): did not occur
promotion of interaction between MDM4 and β-catenin (β-catenin:MDM4 complex): not between MDM4 and β-catenin
ternary complex formation, MDM2 and β-catenin (MDM2 and β-catenin): could promote ternary complex formation
EC50 (β-catenin:MDM2 complex): 0.01 to 0.1 µM

interaction data at Target Concentration 1000 (VHL-ELOBC [1]): 0
Compound: DPAWYACMDAARVCDRT

Compound: CC[C@H](C)[C@H](NC(=O)[C@@H]1CSCC(=O)Nc2ccc(cc2)NC(=O)CSC[C@H](NC(=O)[C@H](CC(=O)O)NC(=O)[C@H](CC(N)=O)NC(=O)[C@H](C)NC(=O)[C@H](C)NC(=O)[C@H](CO)NC(=O)[C@@H](NC(=O)[C@@H]2CCCN2C(C)=O)[C@@H](C)CC)C(=O)N[C@@H](Cc2ccccc2)C(=O)N[C@@H](CCCCN)C(=O)N[C@@H](C)C(=O)N[C@@H](C)C(=O)N[C@@H](Cc2c[nH]c3ccccc23)C(=O)N[C@@H](CCC(N)=O)C(=O)N1)C(=O)N[C@H](C(=O)N[C@@H](Cc1c[nH]c2ccccc12)C(=O)N[C@@H](CC(C)C)C(=O)N[C@@H](Cc1c[nH]cn1)C(=O)N[C@@H](CCC(N)=O)C(N)=O)[C@@H](C)CC [Helicon H332]
ternary complex formation with MDM4 (MDM4): did not occur
promotion of interaction between MDM4 and β-catenin (β-catenin:MDM4 complex): not between MDM4 and β-catenin
ternary complex formation, MDM2 and β-catenin (MDM2 and β-catenin): could promote ternary complex formation
EC50 (β-catenin:MDM2 complex): 0.01 to 0.1 µM
